Measured values published in US20210255168A1, “A METHOD OF PRECISION CANCER THERAPY” (KING FAISAL SPECIALIST HOSPITAL & RESEARCH CENTRE, priority 2018, published 2021).

Columns and labels:
Type in all cases: cell-based
[1] = tested on: TNF-α-ARE luciferase reporter in MDA-MB-231 cells; assay: Post-transcriptional ARE luciferase reporter assay (kinase inhibitor library screen)
Source text: Reporters were designed to be driven by the ribosomal protein subunit 30 (RPS30) promoter. The promoter was amplified using PCR with primers specific to the flanking region of the RPS30 promoter sequence. The gene structure of RPS30 was obtained from the Ribosomal Protein Database (http://ribosome.med.miyazaki-u.ac.jp). The forward and reverse primers included the restriction sites, EcoR V and SalI sites. Amplified DNA fragments were then resolved in 1.2%-1.5% agarose gel and the amplicon bands were excised, purified and cloned into the promoterless plasmid. TNF-α 3′-UTR and TNF-α ARE were used to study the role of AU-rich elements in the action of PKs inhibitors. The AU-rich sequence that comprised 250 bases from TNF-α 3′UTR (1200-1450 bp, NM_00059) was amplified by PCR using the forward primer 5′-[…]-3′ (SEQ ID NO:1) and the reverse primer 5′-[…]-3′ (SEQ ID NO:2). The TNF-α-ARE sequence was made by annealing two synthetic complementary oligonucleotides of 70 bases that correspond to TNF-α ARE. The control reporter was constructed to have the basic structure of post-transcriptional reporter except 3′UTR which lack the AU-rich element sequence like this of bovine growth hormone. Any ARE reiterations or variations can be used, with minimal sequence is AUUUA, preferably, WW(AUUUA)WW, where W=A or U. They can be also repeated as an overall, e.g., AUUUAUUA, anywhere from 0 to 10 repeats as example.
Selleckchem Kinase Inhibitor Library that includes a selection of 378 pharmacologically active inhibitors of a number of protein kinases was purchased from Selleckchem. (Houston, Tex., USA). This library is a collection of 378 kinase inhibitors some of which have been approved by the FDA. Each compound is provided as a pre-dissolved 10 mM dimethyl sulfoxide (DMSO) solution as a 96 well format tube (100 μL). The compounds were diluted by OPTI-MEM (Thermo Fisher Scientific, Waltham, Mass., USA) to a final concentration of 5 μM.
Post-transcriptional and control reporter constructs were transfected to MDA-MB-231 cells separately that were seeded in 96-well microplates at a density of 4×10^4 cells/well and incubated overnight. Using lipofectamine 2000 protocol (Invitrogen, Carlsbad, Calif., USA), the cells were transfected with 10 ng of either RPS30-luciferase-control 3′UTR or RPS30-luciferase-ARE 3′UTR reporter plasmids. After 24 h, the cells were treated with each member of protein kinase inhibitors kit for 24 h. Then, luciferase reaction was performed as prescribed by manufacture's protocol (Nano-Glo Luciferase, Promega, Madison, Wis., USA)/well. After 15 minutes, the reporters' activities were measured through the measurement of the chemiluminescence (FIG. 8) after treatment using a Zenith 3100 (Anthos Labtec, Eugendorf, Austria).
Data are presented as means±standard error of the mean (SEM). Two-sample Student's t-test was used to determine the differences between two data sets. One-way analysis of variance (ANOVA) was used to compare three or more data columns. Two-way analysis of variance was used to analyze two groups of data, each having two data columns. Analysis was performed using GraphPad Prism version 6.00 for Windows, (GraphPad Software, La Jolla Calif., USA). For high throughput screening (HTS) hit selection (protein kinase inhibitors), strictly standardized mean difference (SSMD) test was used. This statistical test measures the size of effect of each member in a group relative to the other members. It is the mean of each member divided by the standard deviation of the difference between two random values from different groups. Based on the value of SSMD, the effect of each member of the library was classified as strong (β≥5), moderate (1≤β<5), and weak (β<1). In this study, only drug with SSMD score more than or equal to 5 or less than or equal to −5, i.e. strong β, where selected in the primary screening. […]

[2] = tested on: TTP mRNA in MDA-MB-231 cells; assay: qPCR for TTP mRNA expression; conditions: MDA-MB-231, 24 h, vs DMSO
Procedure: Cells were cultured in six-well plates and either treated with DMSO or drugs for 24 h. Total RNA was then extracted using Trizol reagent (TRI Reagent, Sigma-Aldrich, St Louis, Mo.). The cells were lysed directly on the culture dish by adding 1 ml of the TRI Reagent per 10 cm^2 surface area. Reverse transcription for preparation of cDNA was performed using 3 μg of total RNA, 150 ng random primers, 0.1 M dithiothreitol (DTT), 10 mM deoxynucleotide triphosphate (dNTP) and 200 U of SuperScript II (Invitrogen, Foster City, Calif.). The quantitative RT-QPCR was performed in multiplex in the Chroma 4 DNA Engine cycler (BioRad, Hercules, Calif., USA) using FAM-labelled TaqMan probes (Applied Biosystems, Foster City, Calif., USA) for TTP (ZFP36), HuR (ELAVL1), uPA (PLAU)-CXCR4, MMP-1, MMP-13, IL-8, PLK-1 while a VIC-labelled glyceraldehyde-3-phosphate dehydrogenase (GAPDH) probe was used as the endogenous control. Samples were amplified in triplicate and quantification of relative expression was performed using the estimation of quantitation cycle (Cq) method.
To study the influence of PLK-1 inhibition on ARE-containing mRNA stability, the effect of volasertib treatment on the half-life of uPA was analyzed. Half-life of uPA mRNA was reduced from >6 hr to 0.5 hr in response to volasertib treatment compared to the DMSO control (FIG. 12C). […]

MDA-MB-231 cells [3] = assay: Invasion assay (RTCA, Matrigel)
Procedure: (§1) MDA-MB-231 cells were seeded in 6-well cell culture plates and incubated overnight. The cells were treated with the selected protein kinase inhibitors and incubated overnight. Then they were reseeded onto the invasion chamber in serum-free media at a density of 2×10^4 cells per well using 16-well CIM-Plate in Real-Time Cell Analysis (RTCA) Dual Plate (DP) Analyzer (ACEA Bioscinece, California, USA) that was loaded inside the incubator. The lower chambers to which cells will migrate were prepared to contain chemoattractant consisted of 10% FBS. For invasion assays, Matrigel (BioCoat, BD Biosciences, MA) which resembles the complex extracellular environment found in many tissues was prepared and used to coat the upper chamber of CIM plates. Invasion and migration were monitored continuously over 72-hour period using RTCA Software (ACEA Bioscinece, California, USA). The RTCA Instrument automatically monitors the cells every 15 minutes for 100 repetitions. For proliferation assays, the same principle was applied using a single chamber containing complete DMEM media (FIG. 10).
(§2) Based on the dose-response curve, 330 nM was selected to be used as a standard dose for the experiments. In the invasion assay, MDA-MB-231 cells were treated with volasertib or DMSO for 24 hr, then invasion was monitored for 30 hr.

MDA-MB-231 cells [4] = assay: Migration assay (RTCA, without Matrigel); conditions: MDA-MB-231, thirty hours after treatment
Procedure: as §1, §2

Compound: CC[C@@H]1C(=O)N(C)c2cnc(Nc3ccc(C(=O)N[C@H]4CC[C@H](N5CCN(CC6CC6)CC5)CC4)cc3OC)nc2N1C(C)C [volasertib]
- reduction of TNF-ARE luciferase reporter activity ([1]; primary screening, 5 μM): 40%
- reduction in percent reporter activity in the secondary screening compared to the control reporter ([1]; secondary screening, ARE vs non-ARE control reporter): same reduction in percent reporter activity
- enhancement of TTP mRNA expression [2]: 40%
- invasive behavior (MDA-MB-231 cells [3]; MDA-MB-231 treated 24 hr, monitored 30 hr, vs DMSO): reduced invasive behavior
- time at which the effect on invasion started (MDA-MB-231 cells [3]; after treatment): 6 h
- cell migration (MDA-MB-231 cells [4]): reduce breast cancer cells migration
